Laboratory results published in patent publication US20060172357A1, “Detecting human antibodies in non-human serum” (Genentech, priority 2004, published 2006).
Like-named read-outs stand apart in the source and are kept apart here. The star is where a group is joined. Biotin = O=C1N[C@H]2[C@H](CS[C@H]2CCCCC(=O)*)N1

Legend:
rhuMAb2H7 [1] = details: apparent affinity; Method 2; peptide immobilized on streptavidin chip, 2H7-IgG injected, bivalent analyte model
Procedure: In the second method, affinities were measured with a Biacore 3000 on a strepavidin chip using either immobilized CD20-35 mer, bis(biotin)) at 685 RU, CD20(51-mer, mono(biotin)) at 1637 RU, or CD20(51-mer, bis(biotin)) at 1037 RU.
PBS/Tween/azide was used as the running buffer, at 20 μL/minute, with 20 mM HCl for regeneration. 2H7-IgG was injected, and the resulting data was fit to a bivalent analyte model.

CD20 full Length = target: T1, CD20 full Length (Homo sapiens, UniProt P11836); test: ELISA using full-length CD20 molecule as the capture reagent; format: binding; details: N 8
T1 construct: MKHQHQQ leader (N); octa-His (C); made in house; host or cells: E. coli
T1 sequence (P11836 1-297): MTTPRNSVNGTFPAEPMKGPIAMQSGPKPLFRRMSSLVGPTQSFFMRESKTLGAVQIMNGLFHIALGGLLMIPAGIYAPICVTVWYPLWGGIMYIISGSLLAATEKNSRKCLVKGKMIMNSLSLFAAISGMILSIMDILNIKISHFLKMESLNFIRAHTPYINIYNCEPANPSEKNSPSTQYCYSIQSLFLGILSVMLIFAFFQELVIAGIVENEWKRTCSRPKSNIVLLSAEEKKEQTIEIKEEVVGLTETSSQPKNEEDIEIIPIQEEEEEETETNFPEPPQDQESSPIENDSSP
Procedure: […] The plate was then washed for 3 times with the washing buffer (PBS with 0.05% polysorbate-20). Blocking buffer (200 μl) was added and the plate was sealed and incubated at room temperature for 2 hours with a gentle agitation. […] After incubating at room temperature for another hour with a gentle agitation, the plate was washed again with the washing buffer for six times and blotted dry. A volume of 100 μl of the detection agent diluted with the detection agent diluent was added and the plate was sealed and incubated at room temperature for one hour with a gentle agitation. The plate was then washed for another six times and blotted dry before the addition of 100 μl of an equal volume of TMB and H2O2. After incubating at room temperature for 15 minutes without agitation, the reaction was stopped by adding another 100 μl of 1 M H3PO4. The absorbance at 450 nm subtracted of that at 650 nm was read from the Spectra Max250 plate reader (Molecular Devices Corporation, Sunnyvale, Calif.), and the data were processed using SoftmaxPro (Molecular Devices Corporation, Sunnyvale, Calif.).

rhuMAb2H7 [2] = details: apparent equilibrium dissociation constant; Method 1; peptide immobilized on streptavidin chip, 2H7-IgG injected
Procedure: In the first method, affinities were measured with a Biacore 3000 on a strepavidin chip using either immobilized mono-biotinylated CD20-35 mer at 95 RU, or mono-biotinylated CD20-51 mer at 94 RU, where RU is a relative surface plasmon resonance unit based upon an arbitrary scale. The running buffer was HBS-EP flowing at 50 μL/min with 25 μl of 10 mM Glycine-HCl, and a pH of 2.5 for the regeneration. 2H7-IgG was injected, and the resulting data was fit to a 1:1 binding model with Biaevaluation 3.0 software (Biacore AB, Uppsala, Sweden) to get the apparent equilibrium dissociation constants.

Row | Substance | Kd (rhuMAb2H7 [1]) [nM] | Kd (rhuMAb2H7 [2]) [nM] | also measured
1 | Biotin GKISHFLKMESLNFIRAHTPYINIYNCEPANPSEKNSPSTQYCYSIQSGGK (Biotin)-amide [Bis-CD20-51mer] | 110 |  | 
2 | Biotin-FIRAHTPYINIYNCEPANPSEKNSPSTQYCYSGGK(Biotin)-NH2 (cysteine pairing not given here) [Bis-CD20-35mer] | 500 |  | 
3 | Rituxan: anti-CD20 antibody, generated as disclosed in U.S. Pat. No 5,736,137 |  |  | signal of 247 ng/ml of antibody (CD20 full Length; capture reagent 1 μg/mL in PBS, detection Goat anti-hu F(ab′)2 HRP): 0.065 O.D.450 nm; signal of 247 ng/ml of antibody (CD20 full Length; capture reagent 1 μg/mL in PBS, detection Sheep anti-hu IgG HRP (Monkey Adsorbed)): 0.012 O.D.450 nm; signal of 247 ng/ml of antibody (CD20 full Length; capture reagent 5 μg/mL in PBS, detection Goat anti-hu F(ab′)2 HRP): 0.166 O.D.450 nm; signal of 247 ng/ml of antibody (CD20 full Length; capture reagent 5 μg/mL in PBS, detection Sheep anti-hu IgG HRP (Monkey Adsorbed)): 0.023 O.D.450 nm
4 | Biotin-GKISHFLKMESLNFIRAHTPYINIYNCEPANPSEKNSPSTQYCYSIQSGGK-NH2 (cysteine pairing not given here) [Mono-CD20-51 mer] | 130 | 47 | 
5 | Biotin-FIRAHTPYINIYNCEPANPSEKNSPSTQYCYSGGK-NH2 (cysteine pairing not given here) [Mono-CD20-35mer] |  | 41700 | 
